Laboratory results: patent US20090215804A1, “FUMARATE OF 4- [[4- [[4- (2-CYANOETHENYL) -2,6-DIMETHYLPHENYL)AMINO] -2-PYRIMIDINYL]AMINO]BENZONITRILE” (priority 2004, published 2009)
Values after ≈ are worked out from the molar mass of the structure shown. Like-named read-outs stand apart in the source and are kept apart here.

How the values were obtained:
HIV = conditions: wild type of HIV as well as drug and multi drug resistant strains of HIV; cited from earlier work
Solubility data = type: physicochemical
Excerpt: Table 1 lists solubility data of free base (E) 4-[[4-[[4-(2-cyanoethenyl)-2,6-dimethylphenyl]amino]-2-pyrimidinyl]amino]benzonitrile and of the compound of formula (I-a).

BCS classification = type: physicochemical
Excerpt: A scientific framework for classifying drug substances based on their aqueous solubility and intestinal permeability is the Biopharmaceutics Classification System or BCS. […] Free base and fumarate salt may be classified as BCS class 2 compounds.

[1] = Chemical stability: storage at different humidity and temperature, HPLC for percentage of impurities; type: physicochemical
Procedure: Compound (I-a) was stored under different conditions of humidity and temperature. After storage, the salt was analyzed by High Performance Liquid Chromatography (HPLC) for percentage of impurities.

Hygroscopicity = type: physicochemical
[2] = Physical stability of the crystal structure after storage, infrared spectroscopy; type: physicochemical; conditions: six weeks storage, conditions of Table 2, infrared spectroscopy
Procedure: The stability of the crystal structure of the compound of formula (I-a) was studied after storage for a period of six weeks under different conditions of humidity and temperature. The same conditions as described in Table 2 were applied. After storage the compound was analyzed with infrared spectroscopy.

## Cc1cc(C=CC#N)cc(C)c1Nc1ccnc(Nc2ccc(C#N)cc2)n1 [4-[[4-[[4-(2-cyanoethenyl)-2,6-dimethylphenyl]amino]-2-pyrimidinyl]amino]-benzonitrile]
HIV
  HIV replication inhibiting activity: excellent

## Cc1cc(/C=C/C#N)cc(C)c1Nc1ccnc(Nc2ccc(C#N)cc2)n1 [Free base (E-isomer), (E) 4-[[4-[[4-(2-cyanoethenyl)-2,6-dimethylphenyl]amino]-2-pyrimidinyl]amino]benzonitrile]
Solubility data; 0.01 N HCl, simulated gastric fluid, solubility in 0.01 N HCl, read-out: Concentration in mg/ml, 0.01 N HCl
  solubility: 0.019 mg/mL (≈ 51.9 µM)
Solubility data; solubility in PEG 400
  Concentration in mg/ml, PEG 400: 40 mg/mL
Solubility data; solubility in water
  Concentration in mg/ml, Water: 0.00002 mg/mL
Solubility data; water
  solubility in water and in HCl (in words): poor solubility
BCS classification
  BCS class: BCS class 2

## Cc1cc(/C=C/C#N)cc(C)c1Nc1ccnc(Nc2ccc(C#N)cc2)n1 [Compound of formula (I-a)]
Solubility data; solubility in 0.01 N HCl
  Concentration in mg/ml, 0.01 N HCl: 0.013 mg/mL
Solubility data; water, solubility in water, read-out: Concentration in mg/ml, Water
  solubility: 0.0009 mg/mL
Solubility data; water
  solubility in water and in HCl (in words): poor solubility
BCS classification
  BCS class: BCS class 2
[1]; 40° C./75% RH, 4 weeks
  Sum of impurities %: 0.62 %, w/w
[1]; 40° C./75% RH, 8 weeks
  Sum of impurities %: 0.61 %, w/w
[1]; 50° C./air, 4 weeks
  Sum of impurities %: 0.62 %, w/w
[1]; 50° C./air, 8 weeks
  Sum of impurities %: 0.61 %, w/w
[1]; RT/56% RH, 4 weeks
  Sum of impurities %: 0.58 %, w/w
[1]; RT/56% RH, 8 weeks
  Sum of impurities %: 0.64 %, w/w
[1]; RT/75% RH, 4 weeks
  Sum of impurities %: 0.59 %, w/w
[1]; RT/75% RH, 8 weeks
  Sum of impurities %: 0.65 %, w/w
[1]; RT/<5% RH, 4 weeks
  Sum of impurities %: 0.61 %, w/w
[1]; RT/<5% RH, 8 weeks
  Sum of impurities %: 0.62 %, w/w
[1]; Reference, 1 week
  Sum of impurities %: 0.58 %, w/w
[1]; storage conditions of Table 2
  chemical stability (in words): chemically stable
Hygroscopicity
  hygroscopicity: not hygroscopic
[2]
  stability of the crystal structure: No changes in crystal structure were observed
